According to publication PMC5431086, “The Rational Design of Therapeutic Peptides for Aminopeptidase N using a Substrate-Based Approach” (Scientific Reports, 2017):
Values joined by “and” are separate entries in the source; they are usually repeats but may differ in a detail not shown here. Identical values can stand only once. Starred links: 1 amine or outer side, 2 acyl side, 3 side chain; linkers in the order of their positions; H or OH if unused. Positions of bridges follow the written chain, without caps; N, C: chain ends. Non-standard residues stand in square brackets, D forms with d. Residues, ends and D or L forms follow the SMILES beside them. No end group written: not given here. *: point of attachment. Suc = O=C(CCC(=O)[*:2])[*:1]; Nle = CCCC[C@H](N)C(=O)O; Cbz = O=C(OCc1ccccc1)*; For = O=C*

Experiments:
hAPN (aminopeptidase N) = target: T1, hAPN (aminopeptidase N) (Homo sapiens, UniProt P15144); test: Inhibition of cleavage of fluorogenic alanine substrate (H-Ala-AMC) by APN; type: biochemical; conditions: 0.1 μM APN, 100 μM H-Ala-AMC; for Ki: APN, Ki from IC50 by Cheng-Prusoff equation; for IC50: pH 7.2, 37 °C, triplicate
T1 construct: human APN ecdomain (residues 66–967) were expressed and purified as previously described; honeybee-melittin signal peptide (N); His6 (C); made in house; host or cells: insect cells
Method: Five-residue long peptides containing P1–P4′ residues from primary cleavages in the library were synthesized and tested for their ability to prevent the cleavage of a fluorogenic alanine substrate by hAPN.
The peptides used in this study were custom synthesized by AAPPTEC of Louisville, KY using traditional Fmoc solid-phase peptide synthesis. All of the peptides were purified and characterized by AAPPTEC. […] Inhibition assays were performed in triplicate in a 100 mM Tris pH 7.2, Brij 35 0.0002% w/v assay buffer at 37 °C with 0.1 μM APN and 100 μM H-Ala-AMC (fluorophore). Values were recorded by Infinite pro plate reader every 2 minutes for 30 minutes with laser parameters set for excitation at 355 nm and emission at 460 nm.

aminopeptidase A = aminopeptidase A (Homo sapiens, UniProt Q07075); test: Protease selectivity panel, aminopeptidase A; type: biochemical
Method: (§1) Next, the specificity of the lead peptide inhibitor cyc-LHSPW was tested against a panel of cancer-associated proteases with wide-ranging substrate specificities (Fig. 5A). APN was the only protease inhibited by cyc-LHSPW with chymotrypsin, trypsin, PSA, KLK7, aminopeptidase A, and the exopeptidase FAP all having Ki values above 100 μM. Having assessed selectivity for purified APN, we next evaluated the ability of cyc-LHSPW to preferentially bind to cells that express surface APN using flow cytometry (Fig. 5B). […] The expression of cell surface-associated APN was examined in the androgen receptor negative neuroendocrine prostate cancer cell lines PC3 and DU145 using a commercially available antibody. […] The peptide was next tested on frozen PC3 and DU145 tumor xenografts sections.
(§2) Figure 5 Determining the specificity of cyc-LHSPW for APN. (A) The cyc-LHSPW peptide was specific inhibitor of APN when compared to a panel of proteases. (B) Fluorescence microscopy of frozen PC3 (left) and DU145 (right) xenograft sections with cyc-LHSPW-(Gly)4-FITC. Sections were incubated with 250 nM of cyc-LHSPW-(Gly)4-FITC overnight and then visualized. The merged fluoresence channels are cyc-LHSPW-(Gly)4-FITC (green) and nuclei (DAPI, blue). (C) Analysis of APN inhibitor binding to PC3 (left) and DU145 cells (right) by flow cytometry. […]

FAP = target: T2, FAP (Homo sapiens, UniProt Q12884); test: Protease selectivity panel, FAP; type: biochemical
T2 sequence (Q12884 1-760): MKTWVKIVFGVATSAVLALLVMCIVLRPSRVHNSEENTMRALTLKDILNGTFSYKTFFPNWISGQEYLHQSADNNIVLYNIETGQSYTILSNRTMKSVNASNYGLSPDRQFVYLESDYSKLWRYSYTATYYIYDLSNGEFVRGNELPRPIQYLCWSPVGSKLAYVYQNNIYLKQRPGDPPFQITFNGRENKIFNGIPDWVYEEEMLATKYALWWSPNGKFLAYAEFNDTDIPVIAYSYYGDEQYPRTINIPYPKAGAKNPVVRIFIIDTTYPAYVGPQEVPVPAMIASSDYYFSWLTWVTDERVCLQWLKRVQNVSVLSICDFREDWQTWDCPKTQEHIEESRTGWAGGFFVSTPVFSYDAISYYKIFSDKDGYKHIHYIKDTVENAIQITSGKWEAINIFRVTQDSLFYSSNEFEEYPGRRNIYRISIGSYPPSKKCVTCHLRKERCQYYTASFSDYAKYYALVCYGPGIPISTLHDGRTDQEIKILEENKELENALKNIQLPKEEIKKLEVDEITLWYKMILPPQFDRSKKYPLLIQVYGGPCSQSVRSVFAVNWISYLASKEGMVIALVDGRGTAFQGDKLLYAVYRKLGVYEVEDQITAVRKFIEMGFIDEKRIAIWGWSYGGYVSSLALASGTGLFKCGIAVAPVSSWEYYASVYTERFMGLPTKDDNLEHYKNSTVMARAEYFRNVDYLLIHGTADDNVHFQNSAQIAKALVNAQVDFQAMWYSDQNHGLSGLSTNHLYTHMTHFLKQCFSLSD
Method: as §1, §2

PSA = PSA (Homo sapiens, UniProt P07288); test: Protease selectivity panel, PSA; type: biochemical
Method: as §1, §2

KLK7 = KLK7 (Homo sapiens, UniProt P49862); test: Protease selectivity panel, KLK7; type: biochemical
Method: as §1, §2

[1] = Toxicity study, i.v. administration; type: in vivo; conditions: mice
Method: The potential therapeutic efficacy of cyc-LHSPW was next tested in vitro using the PC3 and DU145 cell lines. […] Prior to in vivo therapeutic efficacy studies, a toxicity study was performed with the i.v. administration of cyc-LHSPW. […] Mice bearing established PC3 and DU145 xenografts were treated systemically via tail vein injection with 40 mg/kg of the tumor homing APN peptide cyc-NGR or the cyc-LHSPW peptide t.i.w. x4 (Fig. 6B). […] This therapeutic effect persisted to the end of the study with the cyc-LHSPW-treated mice having a tumor volume of 309.3 ± 92.7 mm^3 at day 35. […] PC3 tumors were removed and stained for the cellular proliferation marker Ki67.

T1 sequence (P15144 66-967): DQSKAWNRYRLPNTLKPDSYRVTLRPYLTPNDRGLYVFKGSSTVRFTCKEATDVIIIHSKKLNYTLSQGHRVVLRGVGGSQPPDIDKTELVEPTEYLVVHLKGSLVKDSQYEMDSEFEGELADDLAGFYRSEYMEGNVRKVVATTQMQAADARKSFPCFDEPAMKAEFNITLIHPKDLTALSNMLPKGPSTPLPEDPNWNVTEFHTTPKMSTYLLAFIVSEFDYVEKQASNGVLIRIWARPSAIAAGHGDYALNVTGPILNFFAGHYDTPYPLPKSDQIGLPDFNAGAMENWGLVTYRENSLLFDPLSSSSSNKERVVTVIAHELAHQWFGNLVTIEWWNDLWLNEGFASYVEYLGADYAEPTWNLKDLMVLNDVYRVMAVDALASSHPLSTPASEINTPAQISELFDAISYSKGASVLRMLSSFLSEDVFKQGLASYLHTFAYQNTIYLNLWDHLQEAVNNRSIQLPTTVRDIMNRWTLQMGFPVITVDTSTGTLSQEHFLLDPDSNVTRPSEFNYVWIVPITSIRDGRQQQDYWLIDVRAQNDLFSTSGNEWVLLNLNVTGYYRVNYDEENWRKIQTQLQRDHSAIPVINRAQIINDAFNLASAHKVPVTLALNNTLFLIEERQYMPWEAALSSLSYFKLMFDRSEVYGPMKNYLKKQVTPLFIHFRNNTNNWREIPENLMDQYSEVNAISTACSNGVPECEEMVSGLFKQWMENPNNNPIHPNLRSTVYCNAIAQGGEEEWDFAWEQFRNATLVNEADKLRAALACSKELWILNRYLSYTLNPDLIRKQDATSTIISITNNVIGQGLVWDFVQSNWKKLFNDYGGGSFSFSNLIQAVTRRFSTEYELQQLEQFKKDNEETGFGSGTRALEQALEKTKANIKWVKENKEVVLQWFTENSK
PSA, sequence (P07288 25-261): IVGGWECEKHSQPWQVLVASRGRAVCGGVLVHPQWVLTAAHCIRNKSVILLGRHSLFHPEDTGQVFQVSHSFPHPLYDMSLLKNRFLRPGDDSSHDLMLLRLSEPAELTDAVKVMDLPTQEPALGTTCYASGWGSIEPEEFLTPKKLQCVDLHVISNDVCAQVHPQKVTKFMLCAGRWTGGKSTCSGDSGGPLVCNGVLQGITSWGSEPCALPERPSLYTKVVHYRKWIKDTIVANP
aminopeptidase A, sequence (Q07075 whole entry, species assumed): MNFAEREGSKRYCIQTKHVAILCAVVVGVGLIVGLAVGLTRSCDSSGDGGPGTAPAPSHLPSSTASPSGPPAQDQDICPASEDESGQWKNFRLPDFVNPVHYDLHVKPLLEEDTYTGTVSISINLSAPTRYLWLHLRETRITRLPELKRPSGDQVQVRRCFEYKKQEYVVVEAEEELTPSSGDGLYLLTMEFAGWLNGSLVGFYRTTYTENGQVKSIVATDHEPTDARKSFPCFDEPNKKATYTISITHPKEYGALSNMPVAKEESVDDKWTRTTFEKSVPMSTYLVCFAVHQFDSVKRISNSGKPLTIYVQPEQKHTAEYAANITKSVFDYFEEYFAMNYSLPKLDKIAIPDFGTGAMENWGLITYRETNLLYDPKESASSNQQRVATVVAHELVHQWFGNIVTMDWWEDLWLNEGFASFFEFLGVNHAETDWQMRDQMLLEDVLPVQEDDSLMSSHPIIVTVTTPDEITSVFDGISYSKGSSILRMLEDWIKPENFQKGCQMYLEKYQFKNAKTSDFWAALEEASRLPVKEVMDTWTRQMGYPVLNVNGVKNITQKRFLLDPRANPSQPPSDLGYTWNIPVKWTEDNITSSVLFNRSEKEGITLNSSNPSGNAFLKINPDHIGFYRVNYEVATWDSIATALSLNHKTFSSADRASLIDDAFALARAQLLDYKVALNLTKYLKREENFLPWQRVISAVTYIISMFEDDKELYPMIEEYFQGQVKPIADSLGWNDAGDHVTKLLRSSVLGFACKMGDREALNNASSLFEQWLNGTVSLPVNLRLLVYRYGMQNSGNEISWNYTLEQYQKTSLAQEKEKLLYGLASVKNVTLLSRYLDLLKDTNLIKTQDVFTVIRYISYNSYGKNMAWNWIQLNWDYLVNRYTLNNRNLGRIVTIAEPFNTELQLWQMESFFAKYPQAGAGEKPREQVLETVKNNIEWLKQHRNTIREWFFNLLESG
KLK7, sequence (P49862 30-253, species assumed): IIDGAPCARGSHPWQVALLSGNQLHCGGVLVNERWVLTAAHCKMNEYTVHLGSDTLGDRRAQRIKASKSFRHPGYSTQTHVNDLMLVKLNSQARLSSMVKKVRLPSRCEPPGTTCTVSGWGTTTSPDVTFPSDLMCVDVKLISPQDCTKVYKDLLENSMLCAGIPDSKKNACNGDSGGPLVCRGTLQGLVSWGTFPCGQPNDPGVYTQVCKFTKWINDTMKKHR

| Compound | Ki (hAPN (aminopeptidase N)) [µM] | IC50 (hAPN (aminopeptidase N)) | also measured |
| --- | --- | --- | --- |
| N[C@H]1CSSC[C@@H](C(=O)O)NC(=O)[C@H](Cc2c[nH]c3ccccc23)NC(=O)[C@@H]2CCCN2C(=O)[C@H](CO)NC(=O)[C@H](Cc2c[nH]cn2)NC(=O)[C@@H]2CCCN2C1=O [cyc-PHSPW, Cys-PHSPW-Cys] (H-CPHSPWC-OH; disulfide 1-7) | > 500 | – | – |
| CC(C)C[C@H](NC(=O)CCC(=O)O)C(=O)N[C@@H](Cc1c[nH]cn1)C(=O)N[C@@H](CO)C(=O)N1CCC[C@H]1C(=O)N[C@@H](Cc1c[nH]c2ccccc12)C(=O)O [Suc-LHSPW] (Suc-LHSPW-OH) | > 500 | – | – |
| CC(=O)N[C@@H](Cc1c[nH]cn1)C(=O)N[C@@H](CO)C(=O)N1CCC[C@H]1C(=O)N[C@@H](Cc1c[nH]c2ccccc12)C(=O)O [Ac-HSPW] (Ac-HSPW-OH; C-terminus assumed) | > 500 | – | – |
| N[C@@H](Cc1c[nH]cn1)C(=O)N[C@@H](CO)C(=O)N1CCC[C@H]1C(=O)N[C@@H](Cc1c[nH]c2ccccc12)C(=O)O [HSPW] (H-HSPW-OH; N-terminus and C-terminus assumed) | – | 43 µM and 43.3 µM | – |
| O=C(N[C@@H](Cc1c[nH]cn1)C(=O)N[C@@H](CO)C(=O)N1CCC[C@H]1C(=O)N[C@@H](Cc1c[nH]c2ccccc12)C(=O)O)OCc1ccccc1 [Cbz-HSPW] (Cbz-HSPW-OH; C-terminus assumed) | > 500 | – | – |
| PHSPW [PHSPW] | – | 82.5 ± 9.3 µM | – |
| FYLRE [FYLRE] | – | > 500 µM | – |
| AHLFN [AHLFN] | – | > 500 µM | – |
| FSLSK [FSLSK] | – | > 500 µM | – |
| AHSTF [AHSTF] | – | > 500 µM | – |
| RDLVD [RDLVD] | – | > 500 µM | – |
| C[C@@H]1NC(=O)[C@@H](N)CSSC[C@@H](C(=O)O)NC(=O)[C@H](Cc2c[nH]c3ccccc23)NC(=O)[C@@H]2CCCN2C(=O)[C@H](CO)NC(=O)[C@H](Cc2c[nH]cn2)NC1=O [cyc-AHSPW, Cys-AHSPW-Cys] (H-CAHSPWC-OH; disulfide 1-7) | > 500 | – | – |
| LHSPW [LHSPW] | – | 10.6 ± 1.2 µM | – |
| EHSPW [EHSPW] | – | 115 ± 17.2 µM | – |
| CC(C)C[C@@H]1NC(=O)[C@@H](N)CSSC[C@@H](C(=O)O)NC(=O)[C@@H]2CCCN2C(=O)[C@H](CO)NC(=O)[C@H](Cc2c[nH]cn2)NC1=O [cyc-LHSP] (H-CLHSPC-OH; disulfide 1-6) | 121 ± 21.4 | – | – |
| C[C@@H](O)[C@H](NC(=O)[C@H](CO)NC(=O)[C@@H](N)CC(=O)O)C(=O)N[C@@H](Cc1ccccc1)C(=O)O [DSTF] (H-DSTF-OH) | – | > 500 µM | – |
| EPKVA [EPKVA] | – | > 500 µM | – |
| SKSGQ [SKSGQ] | – | > 500 µM | – |

| Compound | Ki (hAPN (aminopeptidase N)) [µM] | IC50 (hAPN (aminopeptidase N)) | also measured |
| --- | --- | --- | --- |
| CC(C)C[C@H](NC(=O)OCc1ccccc1)C(=O)N[C@@H](Cc1c[nH]cn1)C(=O)N[C@@H](CO)C(=O)N1CCC[C@H]1C(=O)N[C@@H](Cc1c[nH]c2ccccc12)C(=O)O [Cbz-LHSPW] (Cbz-LHSPW-OH) | > 500 | – | – |
| Ac-LHSPW [Ac-LHSPW] | > 500 | – | – |
| O=C(O)CCC(=O)N[C@@H](Cc1c[nH]cn1)C(=O)N[C@@H](CO)C(=O)N1CCC[C@H]1C(=O)N[C@@H](Cc1c[nH]c2ccccc12)C(=O)O [Suc-HSPW] (Suc-HSPW-OH; C-terminus assumed) | > 500 | – | – |
| FDWWG [FDWWG] | – | > 500 µM | – |
| O=CN[C@@H](Cc1c[nH]cn1)C(=O)N[C@@H](CO)C(=O)N1CCC[C@H]1C(=O)N[C@@H](Cc1c[nH]c2ccccc12)C(=O)O [For-HSPW] (For-HSPW-OH; C-terminus assumed) | > 500 | – | – |
| C[C@@H]1NC(=O)[C@H](CC(=O)O)NC(=O)[C@H](C)NC(=O)[C@@H](N)CSSC[C@@H](C(=O)O)NC(=O)[C@H](CCCCN)NC(=O)[C@H](CCCNC(=N)N)NC1=O [cyc-ADARK] (H-CADARKC-OH; disulfide 1-7) | > 500 | – | – |
| AHSPW [AHSPW] | – | 9.4 ± 1.1 µM | – |
| LDSTF [LDSTF] | – | > 500 µM | – |
| CCCC[C@H](N)C(=O)N[C@@H](CC(=O)O)C(=O)N[C@@H](CCC(N)=O)C(=O)N[C@H](C(=O)N[C@@H](Cc1ccc(O)cc1)C(=O)O)[C@@H](C)CC [nDQIY] (H-[Nle]DQIY-OH) | – | > 500 µM | – |
| CC(C)C[C@@H]1NC(=O)[C@@H](N)CSSC[C@@H](C(=O)O)NC(=O)[C@H](Cc2ccccc2)NC(=O)[C@H]([C@@H](C)O)NC(=O)[C@H](CO)NC(=O)[C@H](CC(=O)O)NC1=O [cyc-LDSTF] (H-CLDSTFC-OH; disulfide 1-7) | > 500 | – | – |
| ADARK [ADARK] | – | > 500 µM | – |
| C[C@H](NC(=O)[C@@H](N)CC(=O)O)C(=O)N[C@@H](CCCNC(=N)N)C(=O)N[C@@H](CCCCN)C(=O)O [DARK] (H-DARK-OH) | – | > 500 µM | – |
| CC(C)C[C@H](NC=O)C(=O)N[C@@H](Cc1c[nH]cn1)C(=O)N[C@@H](CO)C(=O)N1CCC[C@H]1C(=O)N[C@@H](Cc1c[nH]c2ccccc12)C(=O)O [For-LHSPW] (For-LHSPW-OH) | > 500 | – | – |
| CC(C)C[C@@H]1NC(=O)[C@@H](N)CSSC[C@@H](C(=O)O)NC(=O)[C@H](Cc2c[nH]c3ccccc23)NC(=O)[C@@H]2CCCN2C(=O)[C@H](CO)NC(=O)[C@H](Cc2c[nH]cn2)NC1=O [cyc-LHSPW, Cys-LHSPW-Cys] (H-CLHSPWC-OH; disulfide 1-7) | 24.7 ± 1.4 | – | Ki (aminopeptidase A): > 100 µM; Ki (FAP): > 100 µM; Ki (PSA): > 100 µM; Ki (KLK7): > 100 µM; tolerability ([1]; 40 mg/kg three time a week for four weeks (t.i.w. x4)): well tolerated, i.e. no signs of morbidity; tolerability ([1]; multiple doses of 100 mg/kg): resulted in cachexia; tolerability ([1]; single high dose of 100 mg/kg): well tolerated |
| INDFL [INDFL] | – | > 500 µM | – |
| CCCC[C@H](N)C(=O)N[C@@H](Cc1c[nH]cn1)C(=O)N[C@@H](CO)C(=O)N1CCC[C@H]1C(=O)N[C@@H](Cc1c[nH]c2ccccc12)C(=O)O [nHSPW] (H-[Nle]HSPW-OH) | – | 6.5 ± 0.5 µM | – |
| CC(C)C[C@@H]1NC(=O)[C@@H](N)CSSC[C@@H](C(=O)O)NC(=O)[C@H](CO)NC(=O)[C@H](Cc2c[nH]cn2)NC1=O [cyc-LHS] (H-CLHSC-OH; disulfide 1-5) | > 500 | – | – |
